According to US9763445B2, “Safened herbicidal compositions comprising a pyridine carboxylic acid herbicide” (Dow AgroSciences, LLC, priority 2014, dated 2017):

How the values were obtained:
spring wheat (TRZAS) = test: Postemergence greenhouse trial, % visual injury on spring wheat; format: in vivo, Triticum aestivum; conditions: alone, 35 g/ha
Procedure, shortened: (§1)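 Injury was scored visually (0 = none, 100 = complete kill) 20–22 d after track-sprayer application at 187 L/ha, compared with solvent-sprayed controls. Test plants at the 2–3 true leaf stage; herbicide (g ae/ha) plus cloquintocet-mexyl safener (g ai/ha) in crop-oil-containing spray; expected mixture response by Colby.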

thistle (CIRAR) = test: Postemergence greenhouse trial, % visual injury on thistle; format: in vivo, Cirsium arvense; conditions: Cirsium arvense, post-emergence; alone, 35 g/ha; read-out: % visual injury, Ob
Protocol: (§2) Seeds of the desired test plant species were planted in Sun Gro MetroMix® 306 planting mixture, which typically has a pH of 6.0 to 6.8 and an organic matter content of about 30 percent, in plastic pots with a surface area of 103.2 square centimeters (cm^2). When required to ensure good germination and healthy plants, a fungicide treatment and/or other chemical or physical treatment was applied. The plants were grown for 7-36 days (d) in a greenhouse with an approximate 14-hour (h) photoperiod which was maintained at about 23° C. during the day and 22° C. during the night. Nutrients and water were added on a regular basis and supplemental lighting was provided with overhead metal halide 1000-Watt lamps as necessary. The plants were employed for testing when they reached the second or third true leaf stage.
(§3) Weighed amounts of technical material were dissolved in a volume of 97:3 volume per volume (v/v) acetone/dimethyl sulfoxide (DMSO) to stock solutions. […] The concentrated stock solutions were diluted with an aqueous mixture of 1.5% v/v of Agri-dex crop oil concentrate to provide the appropriate application rates. Compound requirements are based upon a 12 milliliter (mL) application volume at a rate of 187 liters per hectare (L/ha). Stocks solutions of the safeners were prepared following the same procedure. Spray solutions of the safeners and experimental compound mixtures were prepared by adding the stock solutions to the appropriate amount of dilution solution to form a 12 mL spray solution in two-way combinations. Formulated compounds were applied to the plant material with an overhead Mandel track sprayer equipped with 8002E nozzles calibrated to deliver 187 L/ha over an application area of 0.503 square meters (m^2) at a spray height of 18 inches (43 centimeters (cm)) above average plant canopy. Control plants were sprayed in the same manner with the solvent blank. All herbicide application (component a) rates are in g ae/ha and all safener (component b) rates are in g ai/ha.
(§4) The treated plants and control plants were placed in a greenhouse as described above and watered by sub-irrigation to prevent wash-off of the test compounds. After 20-22 d, the condition of the test plants as compared with that of the control plants was determined visually and scored on a scale of 0 to 100 percent where 0 corresponds to no injury and 100 corresponds to complete kill. The condition of the test plants was compared with that of the control plants as determined visually and scored on a scale of 0 to 100 percent, where 0 corresponds to no injury and 100 corresponds to complete kill. Colby's equation was used to determine the herbicidal effects expected from the mixtures.
(§5) The safener cloquintocet-mexyl was combined with compound 1, compound 2, compound 4, compound 5, and compound 6, and applied to corn/maize (ZEAMX) and spring wheat (TRZAS) and the phytotoxicity of the herbicidal compositions was measured. In addition, the efficacy of the herbicidal composition on velvetleaf (ABUTH, Abutilon theophrasti), pigweed (AMARE, Amaranthus retroflexus), winter rape (BRSNW, Brassica napus), lambsquarters (CHEAL, Chenopodium album), thistle (CIRAR, Cirsium arvense), nutsedge (CYPES, Cyperus esculentus), poinsettia (EPHHL, Euphorbia heterophylla), wild buckwheat (POLCO, Polygonum convolvulus), giant foxtail (SETFA, Setaria faberi), and chickweed (STEME, Stellaria media) was evaluated. […]

corn/maize (ZEAMX) = test: Postemergence greenhouse trial, % visual injury on corn/maize; format: in vivo, Zea mays; conditions: alone, 35 g/ha
Protocol: as §2, §3, §4, §5

pigweed (AMARE) = test: Postemergence greenhouse trial, % visual injury on pigweed; format: in vivo, Amaranthus retroflexus; conditions: Amaranthus retroflexus, post-emergence; alone, 35 g/ha; read-out: % visual injury, Ob
Procedure, shortened: as §1

wild pansy (VIOTR) = test: Postemergence greenhouse trial, % visual injury on wild pansy; format: in vivo, Viola tricolor; conditions: alone, 35 g/ha
Protocol: as §2, §3
as §4, with “mixtures. […]” for “mixtures.”

giant foxtail (SETFA) = test: Postemergence greenhouse trial, % visual injury on giant foxtail; format: in vivo, Setaria faberi; conditions: alone, 35 g/ha
Protocol: as §2
Weighed amounts of technical material were dissolved in a volume of 97:3 volume per volume (v/v) acetone/dimethyl sulfoxide (DMSO) to stock solutions. […] The concentrated stock solutions were diluted with an aqueous mixture of 1.5% v/v of Agri-dex crop oil concentrate to provide the appropriate application rates. Compound requirements are based upon a 12 milliliter (mL) application volume at a rate of 187 liters per hectare (L/ha). […]
as §4, with “Colby's equation was used to determine the herbicidal effects expected from the mixtures.” left out
The safener cloquintocet-mexyl was combined with compound 1, compound 2, compound 4, compound 5, and compound 6, and applied to corn/maize (ZEAMX) and spring wheat (TRZAS) and the phytotoxicity of the herbicidal compositions was measured. […]

chickweed (STEME) = test: Postemergence greenhouse trial, % visual injury on chickweed; format: in vivo, Stellaria media; conditions: alone, 35 g/ha
Protocol: as §2, §3, §4, §5

winter rape (BRSNW) = test: Postemergence greenhouse trial, % visual injury on winter rape; format: in vivo, Brassica napus; conditions: Brassica napus, post-emergence; alone, 35 g/ha; read-out: % visual injury, Ob
Procedure, shortened: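 Visual injury, 0 (none) to 100 (complete kill), rated 20-22 d after overhead track-sprayer application at 187 L/ha; Colby's equation gave expected mixture responses. Herbicide (g ae/ha) and cloquintocet-mexyl safener (g ai/ha) diluted in aqueous 1.5% v/v Agri-dex, applied to weeds at 2–3 true leaves.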

nutsedge (CYPES) = test: Postemergence greenhouse trial, % visual injury on nutsedge; format: in vivo, Cyperus esculentus; conditions: alone, 35 g/ha
Protocol: as §2, §3, §4, §5
The safener cloquintocet-acid and a number of agriculturally acceptable esters and salts (-mexyl, -dimethylammonium salt and -triethylammonium salt) were combined in varying ratios with compound 1 and applied to spring wheat (TRZAS), winter wheat (TRZAW), and spring barley (HORVS), and the phytotoxicity of the herbicidal compositions was measured. […]

lambsquarters (CHEAL) = test: Postemergence greenhouse trial, % visual injury on lambsquarters; format: in vivo, Chenopodium album; conditions: Chenopodium album, post-emergence; alone, 35 g/ha; read-out: % visual injury, Ob
Protocol: as §2, §3, §4
(§6) The safener cloquintocet-mexyl was combined with compound 1, compound 2, compound 4, compound 5, and compound 6, and applied to corn/maize (ZEAMX) and spring wheat (TRZAS) and the phytotoxicity of the herbicidal compositions was measured. In addition, the efficacy of the herbicidal composition on velvetleaf (ABUTH, Abutilon theophrasti), pigweed (AMARE, Amaranthus retroflexus), winter rape (BRSNW, Brassica napus), lambsquarters (CHEAL, Chenopodium album), thistle (CIRAR, Cirsium arvense), nutsedge (CYPES, Cyperus esculentus), poinsettia (EPHHL, Euphorbia heterophylla), wild buckwheat (POLCO, Polygonum convolvulus), giant foxtail (SETFA, Setaria faberi), and chickweed (STEME, Stellaria media) was evaluated.
(§7) The safener cloquintocet-mexyl was combined with compound 1, compound 2, compound 3, compound 7, compound 8, compound 9, compound 10, compound 11, compound 12, compound 13, compound 14, compound 15, compound 16, compound 17, compound 18, compound 19, and compound 20, and applied to spring wheat (TRZAS), winter wheat (TRZAW), and spring barley (HORVS) and the phytotoxicity of the herbicidal compositions was measured. […]

common sorghum (SORVU) = test: Postemergence greenhouse trial, % visual injury on common sorghum; format: in vivo, Sorghum vulgare; conditions: alone, 35 g/ha
Protocol: as §2, §3
as §4, with “mixtures. […]” for “mixtures.”
The safener cloquintocet-acid and a number of agriculturally acceptable esters and salts (-mexyl, -dimethylammonium salt and -triethylammonium salt) were combined in varying ratios with compound 1 and applied to spring wheat (TRZAS), winter wheat (TRZAW), and spring barley (HORVS), and the phytotoxicity of the herbicidal compositions was measured. In addition, the efficacy of the herbicidal composition on pigweed (AMARE, Amaranthus retroflexus), nutsedge (CYPES, Cyperus esculentus), common sunflower (HELAN, Helianthus annuus), and common sorghum (SORVU, Sorghum vulgare).

wild buckwheat (POLCO) = test: Postemergence greenhouse trial, % visual injury on wild buckwheat; format: in vivo, Polygonum convolvulus; conditions: alone, 35 g/ha
Protocol: as §2, §3, §4, §6, §7

velvetleaf (ABUTH) = test: Postemergence greenhouse trial, % visual injury on velvetleaf; format: in vivo, Abutilon theophrasti; conditions: alone, 35 g/ha
Protocol: as §2, §3, §4, §6, §7

poinsettia (EPHHL) = test: Postemergence greenhouse trial, % visual injury on poinsettia; format: in vivo, Euphorbia heterophylla; conditions: alone, 35 g/ha
Protocol: as §2
Weighed amounts of technical material were dissolved in a volume of 97:3 volume per volume (v/v) acetone/dimethyl sulfoxide (DMSO) to stock solutions. […] The concentrated stock solutions were diluted with an aqueous mixture of 1.5% v/v of Agri-dex crop oil concentrate to provide the appropriate application rates. Compound requirements are based upon a 12 milliliter (mL) application volume at a rate of 187 liters per hectare (L/ha). Stocks solutions of the safeners were prepared following the same procedure. […]
as §4, with “Colby's equation was used to determine the herbicidal effects expected from the mixtures.” left out
as §5

| Compound | % visual injury, Ob (spring wheat (TRZAS)) [%] | pest or weed control at 35 g/ha (thistle (CIRAR)) [%] | % visual injury, Ob (corn/maize (ZEAMX)) [%] | pest or weed control at 35 g/ha (pigweed (AMARE)) [%] | % visual injury, Ob (wild pansy (VIOTR)) [%] | % visual injury, Ob (giant foxtail (SETFA)) [%] | % visual injury, Ob (chickweed (STEME)) [%] | plant injury at 35 g/ha (winter rape (BRSNW)) [%] | % visual injury, Ob (nutsedge (CYPES)) [%] | pest or weed control at 35 g/ha (lambsquarters (CHEAL)) [%] | % visual injury, Ob (common sorghum (SORVU)) [%] | % visual injury, Ob (wild buckwheat (POLCO)) [%] | % visual injury, Ob (velvetleaf (ABUTH)) [%] | % visual injury, Ob (poinsettia (EPHHL)) [%] |
| --- | --- | --- | --- | --- | --- | --- | --- | --- | --- | --- | --- | --- | --- | --- |
| COC(=O)c1nc(-c2ccc3ccn(C(C)=O)c3c2F)c(F)c(N)c1Cl [compound 3] | 30 | 50 | 0 | 95 | 10 | 60 | 70 | 30 | 10 | 85 | 10 | 97 | 50 |  |
| COC(=O)c1nc(-c2ccc3ccn(C(=O)C(C)(C)C)c3c2F)c(F)c(N)c1Cl [compound 5] | 45 | 80 | 35 | 100 |  | 60 | 85 | 97 |  | 100 |  | 100 | 80 | 100 |
| COCC(=O)n1ccc2ccc(-c3nc(C(=O)OC)c(Cl)c(N)c3F)c(F)c21 [compound 6] | 35 | 75 | 25 | 100 |  |  |  | 75 | 0 | 100 |  | 97 | 80 | 100 |
